The source of these data is patent US12441754B2, “Galactoside inhibitor of galectins” (GALECTO BIOTECH AB, priority 2019, dated 2025).

One test has as its target Galectin-3 (Homo sapiens, UniProt P17931). Kind of test: fluorescence anisotropy assay, compound as inhibitor of galectin / fluorescein tagged saccharide probe interaction. In kind it is binding. The text has this:
(§1) Anal. Biochem. 334: 36-47, (Sörme et al., 2004) and Monovalent interactions of Galectin-1 By Salomonsson, Emma; Larumbe, Amaia; Tejler, Johan; Tullberg, Erik; Rydberg, Hanna; Sundin, Anders; Khabut, Areej; Frejd, Torbjorn; Lobsanov, Yuri D.; Rini, James M.; et al, From Biochemistry (2010), 49(44), 9518-9532, (Salomonsson et al., 2010).

The next test deals with Galectin-1 (Homo sapiens, UniProt P09382). Described as above. It is filed as binding.
Source text: as §1

The structures appear in SMILES notation. pKd: −log10 of the molar value.

Galectin-3, sequence (P17931 whole entry): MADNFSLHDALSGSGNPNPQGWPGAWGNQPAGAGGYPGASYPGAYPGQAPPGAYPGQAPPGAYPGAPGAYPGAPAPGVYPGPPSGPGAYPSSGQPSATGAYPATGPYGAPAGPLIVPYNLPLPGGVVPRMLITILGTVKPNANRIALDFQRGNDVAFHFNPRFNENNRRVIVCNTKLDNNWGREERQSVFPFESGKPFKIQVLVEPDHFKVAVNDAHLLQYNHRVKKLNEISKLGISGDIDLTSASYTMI
Galectin-1, sequence (P09382 whole entry): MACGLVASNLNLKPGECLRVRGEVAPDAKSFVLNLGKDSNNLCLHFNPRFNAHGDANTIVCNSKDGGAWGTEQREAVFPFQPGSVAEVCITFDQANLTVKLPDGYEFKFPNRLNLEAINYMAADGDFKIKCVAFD

One may read the pKd as the negative decadic logarithm of the Kd, by convention in mol/L. `C#Cc1cncc(S[C@H]2O[C@H](CO)[C@H](O)[C@H](n3cc(-c4csc(N)n4)nn3)[C@H]2OC)c1` [Example 81, 5-Ethynylpyridin-3-yl 3-[4-(2-aminothiazol-4-yl)-1H-1,2,3-triazol-1-yl]-3-deoxy-2-O-methyl-1-thio-α-D-galactopyranoside]: the negative logarithm of the Kd (pKd) on Galectin-3 was 5.18; on Galectin-1 it was 6.72.
For `CO[C@@H]1[C@@H](n2cc(-c3csc(N)n3)nn2)[C@@H](O)[C@@H](CO)O[C@@H]1Sc1cc(Cl)cnc1C1=CCNCC1` [Example 24, 5-Chloro-2-(1,2,3,6-tetrahydropyridin-4-yl)pyridin-3-yl 3-[4-(2-aminothiazol-4-yl)-1H-1,2,3-triazol-1-yl]-3-deoxy-2-O-methyl-1-thio-α-D-galactopyranoside], the pKd at Galectin-3 was 5.48; on Galectin-1 it was 6.82.
For `CCO[C@@H]1[C@@H](n2cc(-c3nc(Cl)cs3)nn2)[C@@H](O)[C@@H](CO)O[C@@H]1Sc1cc(Cl)cnc1C(=O)NC` [Example 95, 5-Chloro-2-(N-methylcarbamoyl)pyridin-3-yl 3-[4-(4-chlorothiazol-2-yl)-1H-1,2,3-triazol-1-yl]-3-deoxy-2-O-ethyl-1-thio-α-D-galactopyranoside], in that order: 7.03 and 8.10.
In the case of `CO[C@@H]1[C@@H](n2cc(-c3nc(Cl)cs3)nn2)[C@@H](O)[C@@H](CO)O[C@@H]1Sc1cc(Cl)cnc1C#N` [Example 13, 5-Chloro-2-cyanopyridin-3-yl 3-[4-(4-chlorothiazol-2-yl)-1H-1,2,3-triazol-1-yl]-3-deoxy-2-O-methyl-1-thio-α-D-galactopyranoside], the pKd on Galectin-3 is 6.80; on Galectin-1 it was 7.60.
As for `CO[C@@H]1[C@@H](n2cc(-c3nccs3)nn2)[C@@H](O)[C@@H](CO)O[C@@H]1Sc1cc(Br)ccc1Cl` [Example 67, 5-Bromo-2-chlorophenyl 3-deoxy-2-O-methyl-3-[4-(2-thiazolyl)-1H-1,2,3-triazol-1-yl]-1-thio-α-D-galactopyranoside], the pKd on Galectin-3 was 5.46; at Galectin-1, 6.59.
For `CO[C@@H]1[C@@H](n2cc(-c3nc(Cl)cs3)nn2)[C@@H](O)[C@@H](CO)O[C@@H]1Sc1cncc(Br)c1` [Example 54, 5-Bromopyridin-3-yl 3-[4-(4-chlorothiazol-2-yl)-1H-1,2,3-triazol-1-yl]-3-deoxy-2-O-methyl-1-thio-α-D-galactopyranoside], in that order: 6.72 and 7.05.
`CO[C@@H]1[C@@H](n2cc(-c3csc(N)n3)nn2)[C@@H](O)[C@@H](CO)O[C@@H]1Sc1cc(Cl)cnc1-c1nccs1` [Example 29, 5-Chloro-2-(thiazol-2-yl)pyridin-3-yl 3-[4-(2-aminothiazol-4-yl)-1H-1,2,3-triazol-1-yl]-3-deoxy-2-O-methyl-1-thio-α-D-galactopyranoside]: the values for the negative-log Kd (pKd) on Galectin-3 and on Galectin-1 were 5.06 and 7.32, respectively.
Turning to `CO[C@@H]1[C@@H](n2cc(-c3nc(Cl)c(Cl)s3)nn2)[C@@H](O)[C@@H](CO)O[C@@H]1Sc1cc(Br)cnc1C#N` [Example 55, 5-Bromo-2-cyanopyridin-3-yl 3-[4-(4,5-dichlorothiazol-2-yl)-1H-1,2,3-triazol-1-yl]-3-deoxy-2-O-methyl-1-thio-α-D-galactopyranoside], the pKd was 7.55 at Galectin-3 and 6.82 on Galectin-1.
As to `C#Cc1cncc(S[C@H]2O[C@H](CO)[C@H](O)[C@H](n3cc(-c4nc(Cl)cs4)nn3)[C@H]2O)c1` [Example 80, 5-Ethynylpyridin-3-yl 3-[4-(4-chlorothiazol-2-yl)-1H-1,2,3-triazol-1-yl]-3-deoxy-1-thio-α-D-galactopyranoside], the figures for the pKd on Galectin-3 and at Galectin-1 were 6.44 and 6.51, respectively.
Consider `COC1C(n2cc(-c3csc(N)n3)nn2)[C@@H](O)C(CO)O[C@@H]1Sc1cc(Cl)cnc1N1CC2(COC2)C1` (stereo partly drawn) [Example 38, 5-Chloro-2-{N-(2-oxa)-6-azaspiro[3.3]heptanyl}-pyridin-3-yl 3-[4-(2-aminothiazol-4-yl)-1H-1,2,3-triazol-1-yl]-3-deoxy-2-O-methyl-1-thio-α-D-galactopyranoside], for which the pKd at Galectin-3 was 5.21; at Galectin-1, 7.00.
Regarding `N#Cc1ccc(Cl)cc1S[C@@H]1C[C@@H](n2cc(-c3nc(Cl)cs3)nn2)[C@@H](O)[C@@H](CO)O1` [Example 43, 5-Chloro-2-cyanophenyl 3-[4-(4-chlorothiazol-2-yl)-1H-1,2,3-triazol-1-yl]-2,3-dideoxy-1-thio-α-D-galactopyranoside], the values for the pKd on Galectin-3 and at Galectin-1 were 5.92 and 6.89, respectively.
`N#Cc1ccc(Cl)cc1S[C@H]1O[C@H](CO)[C@H](O)[C@H](n2cc(-c3nc(Cl)cs3)nn2)[C@H]1O` [Example 50, 5-Chloro-2-cyanophenyl 3-[4-(4-chlorothiazol-2-yl)-1H-1,2,3-triazol-1-yl]-3-deoxy-1-thio-α-D-galactopyranoside]: the results for the pKd at Galectin-3 and on Galectin-1 were 6.64 and 6.96, respectively.
For `CO[C@@H]1[C@@H](n2cc(-c3nccs3)nn2)[C@@H](O)[C@@H](CO)O[C@@H]1Sc1cncc(Br)c1` [Example 2, 5-Bromopyridin-3-yl 3-deoxy-2-O-methyl-3-[4-(2-thiazolyl)-1H-1,2,3-triazol-1-yl]-1-thio-α-D-galactopyranoside], in that order: 5.52 and 6.64.
Consider `CCO[C@@H]1[C@@H](n2cc(-c3csc(N)n3)nn2)[C@@H](O)[C@@H](CO)O[C@@H]1Sc1ccc(Cl)c(Cl)c1` [Example 87, 3,4-Dichlorophenyl 3-[4-(2-aminothiazol-4-yl)-1H-1,2,3-triazol-1-yl]-3-deoxy-2-O-ethyl-1-thio-α-D-galactopyranoside], for which the pKd was 5.26 at Galectin-3 and 6.96 on Galectin-1.
As to `CO[C@@H]1[C@@H](n2cc(-c3csc(N)n3)nn2)[C@@H](O)[C@@H](CO)O[C@@H]1Sc1cc(Br)ccc1C#N` [Example 59, 5-Bromo-2-cyanophenyl 3-[4-(2-aminothiazol-4-yl)-1H-1,2,3-triazol-1-yl]-3-deoxy-2-O-methyl-1-thio-α-D-galactopyranoside], the negative-log Kd (pKd) on Galectin-3 is 5.66; at Galectin-1 it was 7.27.
For `CCO[C@@H]1[C@@H](n2cc(-c3nc(Cl)cs3)nn2)[C@@H](O)[C@@H](CO)O[C@@H]1Sc1cc(Br)cnc1C#N` [Example 86, 5-Bromo-2-cyanopyridin-3-yl 3-[4-(4-chlorothiazol-2-yl)-1H-1,2,3-triazol-1-yl]-3-deoxy-2-O-ethyl-1-thio-α-D-galactopyranoside], in that order: 6.77 and 7.66.
In the case of `CO[C@@H]1[C@@H](n2cc(-c3csc(N)n3)nn2)[C@@H](O)[C@@H](CO)O[C@@H]1Sc1ccc(C#N)c(Cl)c1` [Example 39, 3-Chloro-4-cyanophenyl 3-[4-(2-aminothiazol-4-yl)-1H-1,2,3-triazol-1-yl]-3-deoxy-2-O-methyl-1-thio-α-D-galactopyranoside], the pKd at Galectin-3 was 5.44; at Galectin-1, 7.15.
Consider `Nc1nc(-c2cn([C@H]3[C@@H](O)[C@@H](CO)O[C@H](Sc4ccc(Cl)c(Cl)c4)[C@@H]3OCC(F)(F)F)nn2)cs1` [Example 78, 3,4-Dichlorophenyl 3-[4-(2-aminothiazol-4-yl)-1H-1,2,3-triazol-1-yl]-3-deoxy-2-O-(2,2,2-trifluoroethyl)-1-thio-α-D-galactopyranoside], for which the pKd at Galectin-3 was 5.14; on Galectin-1, 6.28.
Consider `OC[C@H]1O[C@H](Sc2cc(Cl)cnc2-c2ncc[nH]2)[C@H](O)[C@@H](n2cc(-c3csc(O)n3)nn2)[C@H]1O` [Example 75, 5-Chloro-2-(1H-imidazol-2-yl)pyridin-3-yl 3-deoxy-3-[4-(2-hydroxythiazol-4-yl)-1H-1,2,3-triazol-1-yl]-1-thio-α-D-galactopyranoside], for which the results for the pKd at Galectin-3 and on Galectin-1 were 5.11 and 6.89, respectively.
For `CO[C@@H]1[C@@H](n2cc(-c3nc(C)cs3)nn2)[C@@H](O)[C@@H](CO)O[C@@H]1Sc1cc(Br)cnc1C#N` [Example 34, 5-Bromo-2-cyanopyridin-3-yl 3-deoxy-3-[4-(4-methylthiazol-2-yl)-1H-1,2,3-triazol-1-yl]-2-O-methyl-1-thio-α-D-galactopyranoside], in that order: 5.85 and 7.28.
Turning to `N#Cc1cc(Cl)cc(S[C@H]2O[C@H](CO)[C@H](O)[C@H](n3cc(-c4nc(Cl)cs4)nn3)[C@H]2O)c1` [Example 51, 3-Chloro-5-cyanophenyl 3-[4-(4-chlorothiazol-2-yl)-1H-1,2,3-triazol-1-yl]-3-deoxy-1-thio-α-D-galactopyranoside], the pKd at Galectin-3 is 6.43; on Galectin-1, 6.60.
As for `CO[C@@H]1[C@@H](n2cc(-c3csc(N)n3)nn2)[C@@H](O)[C@@H](CO)O[C@@H]1Sc1cc(Cl)cnc1C#N` [Example 17, 5-Chloro-2-cyanopyridin-3-yl 3-[4-(2-aminothiazol-4-yl)-1H-1,2,3-triazol-1-yl]-3-deoxy-2-O-methyl-1-thio-α-D-galactopyranoside], the pKd was 5.72 at Galectin-3 and 7.48 at Galectin-1.
For the compound `CO[C@@H]1[C@@H](n2cc(-c3csc(O)n3)nn2)[C@@H](O)[C@@H](CO)O[C@@H]1Sc1cncc(C#N)c1` [Example 83, 5-Cyanopyridin-3-yl 3-deoxy-3-[4-(2-hydroxythiazol-4-yl)-1H-1,2,3-triazol-1-yl]-2-O-methyl-1-thio-α-D-galactopyranoside], the pKd at Galectin-3 was 5.24; on Galectin-1, 6.82.
For `N#Cc1ncc(Cl)cc1S[C@H]1O[C@H](CO)[C@H](O)[C@H](n2cc(-c3nccs3)nn2)[C@H]1OCc1cc(F)c(O)c(F)c1` [Example 6, 5-Chloro-2-cyanopyridin-3-yl 3-deoxy-2-O-(3,5-difluoro-4-hydroxybenzyl)-3-[4-(2-thiazolyl)-1H-1,2,3-triazol-1-yl]-1-thio-α-D-galactopyranoside], the pKd was 6.02 on Galectin-3 and 7.02 on Galectin-1.
